From US20070219214A1, “Dual NK2/NK3-antagonists, pharmaceutical compositions comprising them, and processes for their preparation” (Solvay pharmaceuticals GmbH, priority 2006, published 2007)

What was measured:
human NK2-receptor = biological target: T1, human NK2-receptor (Homo sapiens, UniProt P21452); test: Binding potency of the test substances to NK2-receptors in vitro ([3H]-SR 48968 displacement); parameters: expressed in transfected cells; host or cells: CHO cells (membrane preparation); details: human NK2-receptor in CHO cell membranes, [3H]-SR 48968 (saredutant); average of at least three measurements; read-out: pKi, binding potency to NK2-receptors (converted)
T1 sequence (P21452 1-398): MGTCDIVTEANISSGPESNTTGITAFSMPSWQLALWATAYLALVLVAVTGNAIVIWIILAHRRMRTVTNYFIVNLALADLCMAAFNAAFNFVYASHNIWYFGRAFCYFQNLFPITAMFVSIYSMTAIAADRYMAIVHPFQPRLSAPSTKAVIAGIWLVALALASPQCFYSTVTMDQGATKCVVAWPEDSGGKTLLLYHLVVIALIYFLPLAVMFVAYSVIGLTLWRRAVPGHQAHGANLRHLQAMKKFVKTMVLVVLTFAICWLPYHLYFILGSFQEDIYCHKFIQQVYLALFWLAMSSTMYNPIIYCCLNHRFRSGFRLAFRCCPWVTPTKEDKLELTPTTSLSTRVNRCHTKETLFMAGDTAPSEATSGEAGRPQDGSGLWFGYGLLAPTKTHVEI
Description: 2. Determination of the Binding Potency of the Test Substances to NK2-Receptors in Vitro
The affinity of test compounds for NK2-receptors can be determined by measuring the ability of the test compound to displace a radiolabeled ligand from its specific binding site.
(§1) The radiolabel used in this assay is [^3H]-SR 48968 (saredutant). Receptors were obtained from membrane preparations of CHO-cells (Chinese Hamster Ovary cells), in which the human NK2-receptor was stably expressed. Membranes were incubated with [^3H]-saredutant in the absence or presence of test compounds at different concentrations, diluted in a buffer system. Separation of bound radioactivity from free radioactivity was done by filtration through glass fiber filters (Packard GF/B) with several washings with ice-cold buffer solution. Bound radioactivity was measured with a liquid scintillation counter (total binding). Unspecific binding was determined by incubation with an excess (0.1 μmol/l) of unlabeled saredutant. Specific binding is obtained by subtracting the unspecific binding from the total binding.
(§2) Radioactivity of the specific binding was plotted against the concentration of the test compound and IC50 values, i.e. the concentration of test compound by which 50% of the radioligand is displaced, were calculated. The inhibition constant (Ki) was calculated according to the Cheng-Prusoff equation, and listed as its negative logarithmic value (pKi). The pKi value describes the potency of a test compound to bind to a receptor.
(§3) The average result of all measurements is listed above.

human NK3 receptor = biological target: T2, human NK3 receptor (Homo sapiens, UniProt P29371); test: Binding potency of the test substances to NK3-receptors in vitro ([3H]-SR 142801 displacement); parameters: expressed in transfected cells; host or cells: CHO cells (membrane preparation); details: human NK3-receptor in CHO cell membranes, [3H]-SR 142801 (osanetant), average of at least three measurements; for Ki: read-out: pKi, binding potency to NK3-receptors (converted)
T2 sequence (P29371 1-465): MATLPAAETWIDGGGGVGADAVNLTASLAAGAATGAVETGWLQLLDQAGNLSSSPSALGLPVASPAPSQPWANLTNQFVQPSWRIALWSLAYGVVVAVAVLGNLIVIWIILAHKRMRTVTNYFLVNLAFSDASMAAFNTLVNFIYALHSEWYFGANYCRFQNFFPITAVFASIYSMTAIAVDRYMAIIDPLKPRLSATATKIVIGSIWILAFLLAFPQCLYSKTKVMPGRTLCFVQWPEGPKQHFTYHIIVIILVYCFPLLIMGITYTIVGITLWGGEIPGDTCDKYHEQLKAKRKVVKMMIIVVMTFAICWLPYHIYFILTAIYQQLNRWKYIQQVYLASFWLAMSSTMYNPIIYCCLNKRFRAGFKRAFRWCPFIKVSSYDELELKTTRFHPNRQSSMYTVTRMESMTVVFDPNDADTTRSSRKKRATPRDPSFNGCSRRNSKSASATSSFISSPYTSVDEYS
Description: 3. Determination of the Binding Potency of the Test Substances to NK3-Receptors in Vitro
The affinity of test compounds for NK3-receptors can be determined by measuring the ability of the test compound to displace a radiolabeled ligand from its specific binding site.
as §1, with “142801 (osanetant).” for “48968 (saredutant).”, “NK3-receptor” for “NK2-receptor”, “[^3H]-osanetant” for “[^3H]-saredutant”, “(1” for “(0.1”, “osanetant.” for “saredutant.”
as §2, with “(pKi)” for “(pKi).”
as §3

Row | Structure (SMILES) | Ki (human NK2-receptor) [nM] | Ki (human NK3 receptor) [nM] | pKi, binding potency to NK3-receptors (human NK3 receptor)
1 | CN(C)C(=O)C1(N2CCCCC2)CCN(CCC(CN(C)C(=O)CC(c2ccccc2)c2ccccc2)c2ccc(Cl)c(Cl)c2)CC1 (centres unmarked) [compound 28] | 20 |  | 
2 | CN(C)C(=O)C1(N2CCCCC2)CCN(CCC(CN(C)C(=O)c2ccc[nH]2)c2ccc(Cl)c(Cl)c2)CC1 (centres unmarked) [compound 35] | 3.16 |  | 
3 | CN(C)C(=O)C1CCCCN1C1CCN(CC[C@H](CN(C)C(=O)c2ccccc2)c2ccc(Cl)c(Cl)c2)CC1 (stereo partly drawn) [compound 100, 1′-[(3S)-4-[benzoyl(methyl)amino]-3-(3,4-dichlorophenyl)-butyl]-N,N-dimethyl-1,4′-bipiperidine-2-carboxamide] | ≤ 10 |  | 
4 | Cc1ccccc1C(=O)N(C)CC(CCN1CCC(C(=O)N(C)C)(N2CCCCC2)CC1)c1ccc(Cl)c(Cl)c1 (centres unmarked) [compound 78] | 1.58 | 25.1 | 
5 | CN(C)C(=O)C1(N2CCCCC2)CCN(CCC(CN(C)C(=O)c2ccccc2Br)c2ccc(Cl)c(Cl)c2)CC1 (centres unmarked) [compound 71] | 5.01 | 39.8 | 
6 | Cc1ccc(C(=O)N(C)CC(CCN2CCC(C(=O)N(C)C)(N3CCCCC3)CC2)c2ccc(Cl)c(Cl)c2)cc1 (centres unmarked) [compound 87] | 7.94 | 39.8 | 
7 | CN(C)C(=O)C1(N2CCCCC2)CCN(CCC(CN(C)C(=O)C2CC2c2ccccc2)c2ccc(Cl)c(Cl)c2)CC1 (centres unmarked) [compound 90] | 12.6 | 79.4 | 
8 | CN(C)C(=O)C1(N2CCCCC2)CCN(CCC(CN(C)C(=O)c2ccc(Cl)c(Cl)c2)c2ccc(Cl)c(Cl)c2)CC1 (centres unmarked) [compound 81] | 12.6 | 79.4 | 
9 | CN(C)C(=O)C1(N2CCCCC2)CCN(CC[C@H](CN(C)C(=O)C(Cc2ccc(-c3ccccc3)cc2)NC(=O)C(C)(C)C)c2ccc(Cl)c(Cl)c2)CC1 (some centres unmarked) [compound 60] |  |  | 7.2
10 | CN(C)C(=O)C1(N2CCCCC2)CCN(CCC(CN(C)C(=O)c2ccncc2)c2ccc(Cl)c(Cl)c2)CC1 (centres unmarked) [compound 44] | 5.01 | 31.6 | 
11 | CN(C)C(=O)C1(N2CCCCC2)CCN(CCC(CN(C)C(=O)c2ccsc2)c2ccc(Cl)c(Cl)c2)CC1 (centres unmarked) [compound 38] | 1.58 | 25.1 | 
12 | CN(C)C(=O)C1(N2CCCCC2)CCN(CCC(CN(C)C(=O)c2cc3ccccc3[nH]2)c2ccc(Cl)c(Cl)c2)CC1 (centres unmarked) [compound 39] | 20 | 31.6 | 
13 | CN(C)C(=O)C1(N2CCCCC2)CCN(CCC(CN(C)C(=O)c2ccc(Cl)cc2)c2ccc(Cl)c(Cl)c2)CC1 (centres unmarked) [compound 84] | 12.6 | 39.8 | 
14 | CN(C)C(=O)C1(N2CCCCC2)CCN(CCC(CN(C)C(=O)c2c(F)c(F)c(F)c(F)c2F)c2ccc(Cl)c(Cl)c2)CC1 (centres unmarked) [compound 73] | 12.6 | 39.8 | 
15 | CN(C)C(=O)C1(N2CCCCC2)CCN(CCC(CN(C)C(=O)c2ccc(Cl)cc2Cl)c2ccc(Cl)c(Cl)c2)CC1 (centres unmarked) [compound 75] | 5.01 | 39.8 | 
16 | CN(C)C(=O)C1(N2CCCCC2)CCN(CCC(CN(C)C(=O)c2ccccc2F)c2ccc(Cl)c(Cl)c2)CC1 (centres unmarked) [compound 72] | 3.16 | 39.8 | 
17 | CN(C)C(=O)C1(N2CCCCC2)CCN(CCC(CN(C)C(=O)c2ccccc2C(F)(F)F)c2ccc(Cl)c(Cl)c2)CC1 (centres unmarked) [compound 77] | 3.16 | 79.4 | 
18 | CN(C)C(=O)C1(N2CCCCC2)CCN(CCC(CN(C)C(=O)c2ccc(C(F)(F)F)cc2)c2ccc(Cl)c(Cl)c2)CC1 (centres unmarked) [compound 86] | 12.6 | 63.1 | 

Row | Structure (SMILES) | Ki (human NK2-receptor) [nM] | Ki (human NK3 receptor) [nM] | pKi, binding potency to NK3-receptors (human NK3 receptor)
19 | CN(C)C(=O)C1(N2CCCCC2)CCN(CCC(CN(C)C(=O)c2ccc(-c3ccccc3)cc2)c2ccc(Cl)c(Cl)c2)CC1 (centres unmarked) [compound 27] | 15.8 |  | 
20 | CN(C)C(=O)C1(N2CCCCC2)CCN(CCC(CN(C)C(=O)c2ccccc2C(=O)O)c2ccc(Cl)c(Cl)c2)CC1 (centres unmarked) [compound 25] | 5.01 | 63.1 | 
21 | CN(C)C(=O)C1(N2CCCCC2)CCN(CCC(CN(C)C(=O)Cc2ccc(-c3ccccc3)cc2)c2ccc(Cl)c(Cl)c2)CC1 (centres unmarked) [compound 33] | 79.4 | 31.6 | 
22 | CN(C)C(=O)C1(N2CCCCC2)CCN(CCC(CN(C)C(=O)C2CC2)c2ccc(Cl)c(Cl)c2)CC1 (centres unmarked) [compound 22] | 15.8 | 50.1 | 
23 | CN(C)C(=O)C1(N2CCCCC2)CCN(CCC(CN(C)C(=O)c2ccc(S(N)(=O)=O)cc2)c2ccc(Cl)c(Cl)c2)CC1 (centres unmarked) [compound 46] | 6.31 | 31.6 | 
24 | CN(C)C(=O)C1(N2CCCCC2)CCN(CCC(CN(C)C(=O)c2ccc3cc[nH]c3c2)c2ccc(Cl)c(Cl)c2)CC1 (centres unmarked) [compound 41] | 3.16 | 15.8 | 
25 | CN(C)C(=O)C1(N2CCCCC2)CCN(CCC(CN(C)C(=O)c2cc[nH]c2)c2ccc(Cl)c(Cl)c2)CC1 (centres unmarked) [compound 64] | 12.6 | 79.4 | 
26 | CN(C)C(=O)C1(N2CCCCC2)CCN(CCC(CN(C)C(=O)c2ccc3ccccc3c2)c2ccc(Cl)c(Cl)c2)CC1 (centres unmarked) [compound 32] | 15.8 | 39.8 | 
27 | CN(C)C(=O)C1(N2CCCCC2)CCN(CCC(CN(C)C(=O)c2cccc3ccccc23)c2ccc(Cl)c(Cl)c2)CC1 (centres unmarked) [compound 92] | 20 |  | 
28 | CN(C)C(=O)C1(N2CCCCC2)CCN(CCC(CN(C)C(=O)Cc2c[nH]c3ccccc23)c2ccc(Cl)c(Cl)c2)CC1 (centres unmarked) [compound 40] | 12.6 | 63.1 | 
29 | CN(C)C(=O)C1(N2CCCCC2)CCN(CCC(CN(C)C(=O)c2cc(=O)c3ccccc3o2)c2ccc(Cl)c(Cl)c2)CC1 (centres unmarked) [compound 45] | 2.51 | 12.6 | 
30 | CN(C)C(=O)C1(N2CCCCC2)CCN(CCC(CN(C)C(=O)Cc2cc(O)nc(O)n2)c2ccc(Cl)c(Cl)c2)CC1 (centres unmarked) [compound 57] |  | 63.1 | 
31 | CN(C)C(=O)C1(N2CCCCC2)CCN(CCC(CN(C)C(=O)c2ccc(NC(=O)OC(C)(C)C)cc2)c2ccc(Cl)c(Cl)c2)CC1 (centres unmarked) [compound 54] |  | 6.31 | 
32 | CSc1ncc(C(=O)N(C)CC(CCN2CCC(C(=O)N(C)C)(N3CCCCC3)CC2)c2ccc(Cl)c(Cl)c2)n1Cc1ccccc1 (centres unmarked) [compound 20] | 25.1 |  | 
33 | COc1ccc(-c2ocnc2C(=O)N(C)CC(CCN2CCC(C(=O)N(C)C)(N3CCCCC3)CC2)c2ccc(Cl)c(Cl)c2)cc1 (centres unmarked) [compound 66] |  | 20 | 
34 | CN(C)C(=O)C1(N2CCCCC2)CCN(CCC(CN(C)C(=O)c2cnccn2)c2ccc(Cl)c(Cl)c2)CC1 (centres unmarked) [compound 42] | 15.8 |  | 
35 | CCN(C)C(=O)C1(N2CCCCC2)CCN(CC[C@H](CN(C)C(=O)c2ccccc2)c2ccc(Cl)c(Cl)c2)CC1 [compound 95, 1′-[(3S)-4-[benzoyl(methyl)amino]-3-(3,4-dichlorophenyl)butyl]-N-ethyl-N-methyl-1,4′-bipiperidine-4′-carboxamide] | ≤ 10 |  | 
36 | CN(C)C(=O)C1CCCCN1C1CCN(CC[C@H](CN(C)C(=O)c2ccccc2)c2ccc(Cl)c(Cl)c2)CC1 (some centres unmarked) [compound 100] | 3.16 |  | 
